Measured values reported in patent US20220145304A1, “MODIFIED MICRORNAS AND THEIR USE IN THE TREATMENT OF CANCER” (The Research Foundation for The State University of New York, priority 2019, published 2022).
“And” between values parts separate entries of the source, which are not always exact repeats. Equal values may be shown once. “Also recorded” adds a separate entry of the source.

How the values were obtained:
[1] = tested on: BMI1; assay: Western immunoblot analysis of miR-194 target BMI1 expression; format: cell-based, human; conditions: 50 nM
Experimental: (§1) Cell culture. The human pancreatic cancer cell lines ASPC-1, HS766T, and Panc-1, were obtained from the American Type Culture Collection (ATCC) and maintained in various types of media. Specifically, HS766T and PANC1 cells were cultured in DMEM containing media, and APSC-1 cells were maintained in RPMI medium (Thermo Fischer). Media was supplemented with 10% fetal bovine serum (Thermo Fischer).
(§2) Western immunoblot analysis. Twenty-four hours prior to transfection 1×10^5 cells were plated in 6 well plates. Cells were either transfected using Oligofectamine (Thermo Fischer) or no transfection vehicle, with 50 nM control miRNA (Thermo Fischer), miR-194 or one of the three miR-194 mimics. Three days following transfection protein was collected in RIPA buffer with protease inhibitor (Sigma). Equal amounts of protein (15 μg), were separated on 10% sodium dodecyl sulfate-polyacrylamide gels as described in Laemmli U K. Nature. 1970; 227(5259) pp. 680-685, the entire contents of which is incorporated herein by reference. Proteins were probed with anti-SET8 or BMI-1 (1:500) (Cell Signaling Technologies) and anti-GAPDH (1:100000) antibodies. Horseradish peroxidase conjugated antibodies against mouse or rabbit (1:5000, Santa Cruz Biotech Inc.) were used as the secondary antibodies. Protein bands were visualized with autoradiography film using SuperSignal West Pico Chemiluminescent Substrate (Thermo Fischer).

[2] = tested on: PANC1 pancreatic cancer cells; assay: Cell viability assay (WST-1) in PANC1 pancreatic cancer cells; format: cell-based, human; conditions: for IC50: WST-1 dye 6 days after treatment, calculated using CompuSyn
Experimental: as §1
(§3) Cell viability assay. Cells were plated 1000 cells per well in 96 well plates. Twenty four hours later cell media was changed to media supplemented with DFBS, with 50, 25, 12.5, 6.25, 3.125 or 1.5625 nM of Control miRNA (Thermo Fischer), miR-194, 5-FU-miR-194, Gem-mIR-194 or 5-FU-Gem-miR-194. 24 hours later media was changed again to fresh media supplemented with DFBS. 6 days after treatment cell number was assessed using WST-1 dye (Roche). Cells were incubated with 10 μl of WST-1 dye per 100 μl of media for 1 hour and absorbance was read at 450 and 630 nm. The optical density (O.D.) was calculated by subtracting the absorbance at 630 nm from that at 450 nm. IC^50 values were calculated using CompuSyn software (ComboSyn, Inc).

[3] = tested on: HS766T pancreatic cancer cells; assay: Cell viability assay (WST-1) in HS766T pancreatic cancer cells; format: cell-based, human; conditions: for IC50: WST-1 dye 6 days after treatment, calculated using CompuSyn
Experimental: as §1, §3

[4] = tested on: ASPC1 pancreatic cancer cells; assay: Cell viability assay (WST-1) in ASPC1 pancreatic cancer cells; format: cell-based, human; conditions: for IC50: WST-1 dye 6 days after treatment, calculated using CompuSyn
Experimental: as §1, §3

[5] = tested on: SET8; assay: Western immunoblot analysis of miR-194 target SET8 expression; format: cell-based, human; conditions: 50 nM
Experimental: as §1, §2

[6] = Toxicity in mice treated in the pancreatic cancer metastasis model; format: in vivo; conditions: mouse; 80 μg intravenous injection every other day for two weeks
Experimental: (§4) Mouse subcutaneous tumor implantation model. For in vivo miRNA delivery experiments, pancreatic cancer cells were created that expressed the lenti-luc reporter gene by infecting parental pancreatic cancer cells with a recombinant lentivirus. Luciferase-expressing HS766T cells (2.0×10^6 cells per mouse) were suspended in 0.1 mL of PBS solution and was injected through tail vein of each mouse. Four days after injection of pancreatic cancer cells, mice were treated via tail vein injection with 80 μg of negative control or modified miR(s) packaged with in vivo-jet PEI (Polyplus Transfection). Mice were treated every other day for 2 weeks (8 times). Following treatment, mice were screened using IVIS Spectrum In vivo Imaging System (IVIS) (PerkinElmer).

[7] = tested on: Luciferase-expressing HS766T cells; assay: Pancreatic cancer metastasis mouse model (tail vein injection, IVIS imaging); format: in vivo; conditions: 80 μg intravenous injection every other day for two weeks, started four days after establishing metastasis, versus negative control microRNA
Experimental: as §4

[8] = in the presence of a transfection agent (Oligofectamine), three days following transfection, FIG. 2C
[9] = no transfection vehicle, three days, FIG. 2D
[10] = in the presence of a transfection agent (Oligofectamine), three days following transfection, FIG. 2A
[11] = no transfection vehicle, three days, FIG. 2B

Substance: 5-FU-miR-194 (NGNAACAGCAACNCCANGNGGA; 5-FU replacing U; fluorouracil modified miR-194 with a fluorouracil molecule at positions 1, 3, 13, 17 and 19; (1)..(1) N is Fluorouracil molecule; (3)..(3) N is Fluorouracil molecule; (13)..(13) N is Fluorouracil molecule; (17)..(17) N is Fluorouracil molecule; (19)..(19) N is Fluorouracil molecule)
- BMI1 protein expression (Western blot) [1, 8]: more potent than unmodified (control) miR-194
- BMI1 protein expression (Western blot) [1, 9]: retain the ability to inhibit
- IC50 [2]: 16 nM and 16.7 nM
- IC50 [3]: 26.4 nM
- IC50 [4]: 6.06 nM
- SET8 protein expression (Western blot) [5, 10]: more potent than unmodified (control) miR-194
- SET8 protein expression (Western blot) [5, 11]: retain the ability to inhibit SET8

Substance: Gem-miR-194: modified miR-194, all 5 cytosine bases in the guide strand replaced by gemcitabine: UGUAANAGNAANUNNAUGUGGA [SEQ ID NO. 2], N is gemcitabine (cytosines replaced by gemcitabine, chemistry not fully specified)
- BMI1 protein expression (Western blot) [1, 8]: more potent than unmodified (control) miR-194; also recorded: inhibit SET8 and BMI1
- BMI1 protein expression (Western blot) [1, 9]: retain the ability to inhibit; also recorded: inhibit SET8 and BMI1
- pancreatic cancer cell viability (in words) ([2]; 1.5625-50 nM, FIG. 3B): reduce pancreatic cancer cell viability
- IC50 [2]: 1.92 nM
- pancreatic cancer cell viability (in words) ([3]; 1.5625-50 nM, FIG. 3C): reduce pancreatic cancer cell viability
- IC50 [3]: 3.57 nM
- toxicity in treated mice [6]: did not exhibit any toxicity
- metastatic pancreatic cancer growth ([7]; FIG. 4): able to inhibit metastatic pancreatic cancer growth compared to control
- metastatic pancreatic cancer growth ([7]; FIG. 4, listed as SEQ ID NO: 2): inhibiting tumor growth in vivo
- metastatic pancreatic cancer growth ([7]; FIG. 4, listed as SEQ ID NOs: 2): able to inhibit metastatic pancreatic cancer growth compared to control
- pancreatic cancer cell viability (in words) ([4]; 1.5625-50 nM, FIG. 3A): reduce pancreatic cancer cell viability
- IC50 [4]: 4.29 nM
- SET8 protein expression (Western blot) [5, 10]: more potent than unmodified (control) miR-194; also recorded: inhibit SET8 and BMI1
- SET8 protein expression (Western blot) [5, 11]: retain the ability to inhibit SET8; also recorded: inhibit SET8 and BMI1

Substance: miR-194: unmodified (native) miR-194 sequence UGUAACAGCAACUCCAUGUGGA [SEQ ID NO. 1] (unmodified RNA; listed as Homo sapiens) [reference compound]
- BMI1 protein expression (Western blot) [1, 9]: unable to inhibit target expression
